Data published in patent US8198291B2, “Intranasal opioid compositions” (University of Kentucky Research Foundation, priority 2000, dated 2012).

Key:
[1] = Pharmacokinetics of butorphanol formulation without benzethonium chloride, Pfeiffer Unitdose Second Generation device; format: in vivo, human; settings: single 2 mg intranasal dose, unit-dose device
Excerpt: This formulation had the following spray pattern function when sprayed from the Pfeiffer Unitdose Second Generation device onto an impaction plate from at various distances.
The formulation had the following function and properties when administered to human subjects via the Pfeiffer Unitdose Second Generation spray device.

[2] = Bioavailability/bioequivalence of intranasal butorphanol formulation, unit-dose vs multi-dose spray device; format: in vivo, human
Experimental: This example compares bioavailability of a butorphanol formulation when administered using a unit-dose or multi-dose delivery device. The formulation contains 10 mg butorphanol tartrate, 6.5 mg sodium chloride, 1.0 mg citric acid, 0.20 mg benzethonium chloride in purified water with 1.2 mg sodium hydroxide and hydrochloric acid added to adjust the pH to 5.0. The multi-dose sprayer purports by its label to administer 0.1 ml of liquid composition by metering upon activation by the user. The formulation had the following function and properties when administered to human subjects via the Pfeiffer Unitdose Second Generation spray device.
The second delivery system employed to administer the butorphanol compositions was a unit-dose disposable intranasal applicator that is commercially available from Pfeiffer of America under the designation “Unitdose Second Generation.” Each of the Pfeiffer spray applicators was charged with sufficient liquid to deliver a 0.1 mL dose of the butorphanol test formulation. The glass containers were filled using a pipette under clean conditions, sealed and assembled to the applicator. Each of the applicators was weighed prior to use and after use. Qualified medical personnel administered, one dose into each nostril, after which the applicator was recovered for weighing. In the case of the unit-dose applicators (test formulation), two devices were used for each patient, both of which were discarded following the post-use weighing. The results of these studies of the method and system of the invention and the comparative prior art method follow.
This example assesses the bioequivalence of a butorphanol formulation administered from the unit-dose or multi-dose sprayers described above. The test formulation comprises 1 ml of STADOL NS containing 10 mg butorphanol tartrate, 6.5 mg sodium chloride, 1.0 mg citric acid, 0.20 mg benzethonium chloride in purified water with 1.2 mg sodium hydroxide and hydrochloric acid added to adjust the pH to 5.0. The multi-dose sprayer accompanying STADOL NS purports, by its label, to administer 0.1 ml of liquid. The unit-dose delivery device delivers 0.1 ml of liquid.
The second analysis was to determine whether the intrasubject variabilities of the two spray devices are equal. The study was initiated with 16 subjects, 15 of which completed the study to provide data for this analysis; one subject dropped out after the second period. The following analysis considers both raw and normalized data, with the latter standardized with respect to the dose dispensed.
For both the raw and normalized data, log transformations are applied to the pharmacokinetic endpoints Cmax, AUC ([…]), and AUC(inf.). A mixed effects model was considered for each parameter. Fixed effects for the factors sequence (4 levels), period 3 levels) and formulation (2 levels) were included in the model. Additionally, gender, as well as the interactions between gender and each of sequence, period and formulation was included as a factor in each model to determine whether separate analyses would be necessary for males and females. A total of seven models were considered: Tmax, log of raw Cmax values, log of normalized Cmax values, log transformed values for raw and normalized AUC(last), and log values for raw and normalized AUC(inf.). […] In addition, the lack of significance of the effects included in each model indicate that there was no evidence of unequal carryover between the delivery system of the prior art and that in one embodiment of the present invention.
The mean levels of butorphanol from analysis of the subject's blood plasma reported in pg/ml are plotted against time in FIGS. 1 and 2. The concentration of drug for the unit-dose was unexpectedly higher than that of the multi-dose system. The testing for bioequivalence was done using the method of two one-sided t-test (as described by Bolton, S., Pharmaceutical Statistics. Marcel Dekker, Inc., New York, 1997, pages 415 ff.). […]

[3] = 2 mg intranasal dose, Pfeiffer Unitdose Second Generation spray device, formulation with benzethonium chloride
[4] = 90% CI, line between normCmax and normAUCinf, exponentiated, unit-dose vs multi-dose
[5] = 90% CI, normalized to dispensed dose, exponentiated, unit-dose vs multi-dose
[6] = 90% CI, raw data, exponentiated, unit-dose vs multi-dose
[7] = 90% confidence interval, unit-dose (test) vs multi-dose (reference)
[8] = intranasal, multi-dose spray pump

## O=C(O)C(O)C(O)C(=O)O.Oc1ccc2c(c1)[C@@]13CCCC[C@@]1(O)[C@@H](C2)N(CC1CCC1)CC3 [butorphanol tartrate]
[1]
  Tmax: about 0.25 hr
[2]; [3]
  AUC(0-t): about 10661 pg*hr/ml
  Cmax: about 5230 pg/ml
  Tmax: about 0.234 hr
[2]; [4]
  log(AUClast) (second line of the table), Lower Conf Limit for Ratio of Test/Reference: 0.921
  log(AUClast) (second line of the table), Upper Conf Limit for Ratio of Test/Reference: 1.290
[2]; [5]
  log(normAUCinf), Lower Conf Limit for Ratio of Test/Reference: 0.937
  log(normAUCinf), Upper Conf Limit for Ratio of Test/Reference: 1.220
  log(normCmax), Lower Conf Limit for Ratio of Test/Reference: 0.897
  log(normCmax), Upper Conf Limit for Ratio of Test/Reference: 1.589
[2]; [6]
  log (AUClast), Lower Conf Limit for Ratio of Test/Reference: 1.037
  log (AUClast), Upper Conf Limit for Ratio of Test/Reference: 1.540
  log (Cmax), Lower Conf Limit for Ratio of Test/Reference: 1.031
  log (Cmax), Upper Conf Limit for Ratio of Test/Reference: 1.855
  log(AUCinf), Lower Conf Limit for Ratio of Test/Reference: 1.050
  log(AUCinf), Upper Conf Limit for Ratio of Test/Reference: 1.461
[2]; [7]
  Tmax, Lower Conf Limit for Ratio of Test/Reference: 0.749
  Tmax, Upper Conf Limit for Ratio of Test/Reference: 1.132
[2]; [8]
  AUC(0-t): 9.329 ng·h/mL
  Cmax: 4.072 ng/mL
  Tmax: 14.7 min
[2]; multi-dose vs unit-dose device
  area under the curve from multi-dose device as percent of that of the test (unit-dose): 90%
[2]; unit-dose vs multi-dose device
  higher area under the curve of test device compared to reference device: 10%
  higher serum levels of test device compared to reference device: 10%
